Values of other authors in patent US6159964A, “Vitronectin receptor antagonists” (SmithKline Beecham Corporation, priority 1999, dated 2000).

Tested on: fibrinogen receptor
Conditions: template of WO 93/08174

For `N=C(N)c1ccc(NC(=O)c2ccc3c(c2)CN(CCc2ccccc2)C(=O)C(CC(=O)O)N3)cc1` (racemic) [(R,S)-7-[[[4-(aminoiminomethyl)phenyl]amino]carbonyl]-4-(2-phenylethyl)-1,3,4,5-tetrahydro-3-oxo-2H-1,4-benzodiazepine-2-acetic acid], the “fibrinogen antagonist activity (in words)” value is given as “potent and selective fibrinogen antagonist”.
